Data set [1] has as its system Mus musculus. In words: Anti-inflammatory activity in po dosed B10.RII mouse model of mouse IL-23 mini circle induced psoriasiform dermatitis assessed as decrease in ear thickness measured at 101 to 10000 ng/ml of whole blood drug exposure level measured after 30 mins. The format is functional, organism-based. Particulars: 0.5 h.
For data set [2], the system named is Mus musculus. In words: Anti-inflammatory activity in po dosed B10.RII mouse model of mouse IL-23 mini circle induced psoriasiform dermatitis assessed as decrease in ear thickness measured at 1 to 100 ng/ml of whole blood drug exposure level measured after 30 mins. The format is functional, organism-based. Particulars: 0.5 h.
Data set [3] is described as follows: Unbound clearance in cynomolgus monkey blood at 1 mg/kg, iv. The data set is classed as ADME, organism-based, Macaca fascicularis. Particulars: in vivo.
Data set [4] in a line: AUC (0 to infinity) in cynomolgus monkey at 1 mg/kg,po. The data set is classed as ADME, organism-based, Macaca fascicularis. The arrangement: dose 1 mg/kg, route po. As to conditions: in vivo.
For data set [5], the target named is Tyrosine-protein kinase JAK2 (Homo sapiens, UniProt O60674). Put plainly: Inhibition of JAK2 in human UT7 cells assessed as reduction in erythropoietin induced STAT5 phosphorylation preincubated for 30 mins followed by erythropoietin stimulation and measured after 20 mins by AlphaScreen assay. The format is cell-based. On the technique in general: Alpha assays give light when donor and acceptor beads are brought close together.

For data set [6], the system named is Mus musculus. In words: Anti-inflammatory activity in B10.RII mouse model of mouse IL-23 mini circle induced psoriasiform dermatitis assessed as decrease in ear thickness at 30 mg/kg,po BID for 5 days by caliper analysis. The data set is classed as functional. The arrangement: scale not given: the % may be the effect or the level left. Particulars: time 5 day.

Data set [7] deals with Tyrosine-protein kinase JAK1 (Homo sapiens, UniProt P23458). In words: Inhibition of JAK1 in human TF-1 cells assessed as reduction in IL-6 induced STAT3 phosphorylation at Tyr705 residue preincubated for 30 mins followed by IL-6 stimulation and measured after 30 mins by AlphaScreen assay. The data set is classed as cell-based.
A short description of data set [8]: Oral bioavailability in cynomolgus monkey at 1 mg/kg. The data set is classed as ADME, organism-based, Macaca fascicularis. Particulars: in vivo.
Data set [9] can be described thus: Half life in rat at 1 mg/kg, iv or 1 mg/kg,po. As to conditions: in vivo. The data set is classed as ADME, organism-based.
Data set [10] in a line: Metabolic stability in monkey hepatocytes assessed as intrinsic clearance for unbound fraction of drug. The format is ADME, cell-based, Macaca mulatta, Hepatocyte. As to conditions: rhesus monkey.
Data set [11] concerns the target CYP3A4 (Homo sapiens, UniProt P08684). Put plainly: Induction of CYP3A4 in human hepatocytes assessed as maximum activation in mRNA level at 10 uM incubated for 24 hrs by RT-qPCR analysis relative to control. The data set is classed as ADME, cell-based, Hepatocyte. As to conditions: read-out: max activation.
Data set [12] can be described thus: In vivo inhibition of TYK2 in IL-12/IL-18 induced C57/B6 mouse model assessed as reduction in serum IFN-gamma production at 600 mg/kg,po pretreated for 30 mins prior to IL-12/IL-18 challenge and measured after 4 hrs by MSD assay. As to conditions: C57/B6, 4.5 h, time 270 min. The format is functional.
The target of data set [13] is Non-receptor tyrosine-protein kinase TYK2 (Mus musculus, UniProt Q9R117). Put plainly: Inhibition of TYK2 in C57/B6 mouse whole blood assessed as decrease in STAT4 phosphorylation preincubated for 30 mins followed by mouse IL-12p70 stimulation and measured after 20 mins by flow cytometry. The data set is classed as tissue-based. On the technique in general: In flow cytometry, cells or beads pass a laser one at a time.

Data set [14] is described as follows: Metabolic stability in human hepatocytes assessed as intrinsic clearance for unbound fraction of drug. The format is ADME, cell-based, Hepatocyte.

≈ marks a conversion by molar mass, not a printed value.

Sequence of Tyrosine-protein kinase JAK1 (P23458 whole entry): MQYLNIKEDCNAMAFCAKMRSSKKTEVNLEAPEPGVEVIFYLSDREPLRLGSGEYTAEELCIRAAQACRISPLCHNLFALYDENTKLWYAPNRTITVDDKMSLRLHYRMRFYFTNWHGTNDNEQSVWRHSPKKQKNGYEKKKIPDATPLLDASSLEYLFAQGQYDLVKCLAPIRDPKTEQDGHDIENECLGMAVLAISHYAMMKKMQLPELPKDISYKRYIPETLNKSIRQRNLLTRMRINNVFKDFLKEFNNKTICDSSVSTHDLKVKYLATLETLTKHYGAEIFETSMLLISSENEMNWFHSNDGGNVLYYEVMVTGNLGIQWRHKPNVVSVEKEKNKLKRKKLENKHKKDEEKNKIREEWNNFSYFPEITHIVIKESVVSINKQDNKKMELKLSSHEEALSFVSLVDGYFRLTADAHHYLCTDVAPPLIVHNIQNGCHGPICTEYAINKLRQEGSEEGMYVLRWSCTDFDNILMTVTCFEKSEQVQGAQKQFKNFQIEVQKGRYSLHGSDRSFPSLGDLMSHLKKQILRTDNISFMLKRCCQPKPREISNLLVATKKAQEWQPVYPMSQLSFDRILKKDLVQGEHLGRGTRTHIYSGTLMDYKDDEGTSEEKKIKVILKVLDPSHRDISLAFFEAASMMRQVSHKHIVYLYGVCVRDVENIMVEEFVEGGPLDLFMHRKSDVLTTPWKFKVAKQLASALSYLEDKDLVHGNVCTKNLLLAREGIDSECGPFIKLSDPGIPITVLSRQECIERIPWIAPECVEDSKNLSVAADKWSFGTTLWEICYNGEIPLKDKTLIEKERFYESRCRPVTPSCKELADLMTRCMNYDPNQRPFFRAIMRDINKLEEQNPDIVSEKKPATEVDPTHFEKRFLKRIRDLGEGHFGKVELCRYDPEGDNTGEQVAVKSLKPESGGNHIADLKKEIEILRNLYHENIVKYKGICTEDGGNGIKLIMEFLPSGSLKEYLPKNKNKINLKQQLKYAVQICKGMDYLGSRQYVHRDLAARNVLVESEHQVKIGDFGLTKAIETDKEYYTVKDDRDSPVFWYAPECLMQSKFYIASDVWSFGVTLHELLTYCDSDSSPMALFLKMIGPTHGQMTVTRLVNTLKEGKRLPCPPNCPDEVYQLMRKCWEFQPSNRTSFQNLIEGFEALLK
Sequence of CYP3A4 (P08684 whole entry): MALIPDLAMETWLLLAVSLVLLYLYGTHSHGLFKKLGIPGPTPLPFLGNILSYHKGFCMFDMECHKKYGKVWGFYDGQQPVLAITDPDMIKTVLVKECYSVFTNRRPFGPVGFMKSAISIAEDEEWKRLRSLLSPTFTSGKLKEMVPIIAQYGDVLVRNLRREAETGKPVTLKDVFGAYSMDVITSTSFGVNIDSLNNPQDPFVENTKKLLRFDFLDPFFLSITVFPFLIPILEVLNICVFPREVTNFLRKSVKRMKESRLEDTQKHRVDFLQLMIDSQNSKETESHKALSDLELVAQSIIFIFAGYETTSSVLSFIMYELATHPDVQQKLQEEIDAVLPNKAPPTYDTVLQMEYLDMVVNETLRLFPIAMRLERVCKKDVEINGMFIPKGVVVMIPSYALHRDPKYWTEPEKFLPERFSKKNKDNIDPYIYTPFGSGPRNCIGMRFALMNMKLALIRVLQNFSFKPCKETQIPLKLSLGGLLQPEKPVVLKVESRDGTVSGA
Sequence of Non-receptor tyrosine-protein kinase TYK2 (Q9R117 whole entry): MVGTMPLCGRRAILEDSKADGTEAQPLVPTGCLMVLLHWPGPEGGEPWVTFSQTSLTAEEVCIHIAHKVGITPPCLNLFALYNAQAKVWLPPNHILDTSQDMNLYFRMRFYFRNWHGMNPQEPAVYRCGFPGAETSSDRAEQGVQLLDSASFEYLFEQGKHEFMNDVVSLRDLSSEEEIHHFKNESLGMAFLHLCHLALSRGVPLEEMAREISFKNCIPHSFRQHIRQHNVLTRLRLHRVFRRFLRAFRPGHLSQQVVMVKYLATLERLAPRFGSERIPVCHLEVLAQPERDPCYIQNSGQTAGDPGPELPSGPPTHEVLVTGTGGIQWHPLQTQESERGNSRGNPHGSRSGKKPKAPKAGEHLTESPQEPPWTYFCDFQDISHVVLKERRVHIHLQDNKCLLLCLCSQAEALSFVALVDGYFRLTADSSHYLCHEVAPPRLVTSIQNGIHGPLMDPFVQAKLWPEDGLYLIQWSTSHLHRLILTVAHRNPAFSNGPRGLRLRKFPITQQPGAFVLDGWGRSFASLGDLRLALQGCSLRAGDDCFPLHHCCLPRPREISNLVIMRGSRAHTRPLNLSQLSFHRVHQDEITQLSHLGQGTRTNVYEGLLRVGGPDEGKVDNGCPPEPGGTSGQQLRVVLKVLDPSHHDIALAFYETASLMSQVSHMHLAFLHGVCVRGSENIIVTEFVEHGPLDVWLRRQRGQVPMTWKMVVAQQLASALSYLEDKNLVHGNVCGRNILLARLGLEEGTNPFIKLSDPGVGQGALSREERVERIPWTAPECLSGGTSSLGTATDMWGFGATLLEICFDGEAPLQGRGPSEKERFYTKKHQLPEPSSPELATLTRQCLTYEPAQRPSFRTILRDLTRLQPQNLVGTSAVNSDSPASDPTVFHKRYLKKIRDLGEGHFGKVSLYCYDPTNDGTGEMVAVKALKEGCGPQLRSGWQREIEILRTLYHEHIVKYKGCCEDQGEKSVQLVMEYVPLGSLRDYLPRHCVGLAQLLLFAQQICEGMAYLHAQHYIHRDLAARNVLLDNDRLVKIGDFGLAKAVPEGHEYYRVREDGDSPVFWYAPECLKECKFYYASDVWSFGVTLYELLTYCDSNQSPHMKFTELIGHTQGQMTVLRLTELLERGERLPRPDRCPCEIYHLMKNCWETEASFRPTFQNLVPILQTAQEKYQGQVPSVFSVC
Sequence of Tyrosine-protein kinase JAK2 (O60674 whole entry): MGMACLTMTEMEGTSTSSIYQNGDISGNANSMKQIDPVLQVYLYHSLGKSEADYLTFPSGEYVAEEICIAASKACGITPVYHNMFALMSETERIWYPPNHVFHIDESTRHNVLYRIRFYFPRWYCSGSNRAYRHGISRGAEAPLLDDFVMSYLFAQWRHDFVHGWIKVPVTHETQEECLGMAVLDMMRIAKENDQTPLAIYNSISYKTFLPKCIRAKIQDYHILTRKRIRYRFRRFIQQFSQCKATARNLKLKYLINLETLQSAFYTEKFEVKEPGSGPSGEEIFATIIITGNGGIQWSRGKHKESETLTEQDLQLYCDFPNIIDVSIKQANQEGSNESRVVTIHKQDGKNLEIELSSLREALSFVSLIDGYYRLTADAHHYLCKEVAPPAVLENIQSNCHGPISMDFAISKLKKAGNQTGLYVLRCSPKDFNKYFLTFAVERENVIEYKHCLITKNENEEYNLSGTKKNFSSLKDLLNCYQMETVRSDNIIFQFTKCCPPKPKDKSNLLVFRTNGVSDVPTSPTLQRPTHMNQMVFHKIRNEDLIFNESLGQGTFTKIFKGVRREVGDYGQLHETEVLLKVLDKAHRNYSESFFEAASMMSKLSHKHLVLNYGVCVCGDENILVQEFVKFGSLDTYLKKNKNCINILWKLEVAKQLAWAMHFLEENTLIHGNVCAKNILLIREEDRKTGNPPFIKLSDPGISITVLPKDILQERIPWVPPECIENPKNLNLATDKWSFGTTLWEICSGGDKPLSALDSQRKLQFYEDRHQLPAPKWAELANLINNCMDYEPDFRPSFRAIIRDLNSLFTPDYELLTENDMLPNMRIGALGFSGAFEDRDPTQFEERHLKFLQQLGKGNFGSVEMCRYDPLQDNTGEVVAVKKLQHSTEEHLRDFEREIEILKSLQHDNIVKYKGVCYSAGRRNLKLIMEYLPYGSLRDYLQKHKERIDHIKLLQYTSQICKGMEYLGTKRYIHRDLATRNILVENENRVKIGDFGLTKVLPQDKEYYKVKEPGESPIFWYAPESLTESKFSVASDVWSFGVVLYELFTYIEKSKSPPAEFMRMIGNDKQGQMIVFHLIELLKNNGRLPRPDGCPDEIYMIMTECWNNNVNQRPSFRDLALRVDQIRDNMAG

With `COCc1cc(-c2cn(C3COC3)c3cnc(NC(C)=O)cc23)nc([C@]2(OC)CCOC2)c1`, the EC50 in [1] is 0.3 µg/mL (≈ 0.663 µM); in [2], 0.104 µg/mL (≈ 0.23 µM); in data set [5], > 20 µM; in data set [7], > 20 µM; in data set [13], 1.4 µM. Besides, the results for the CL free in data set [3], in data set [10] and in [14] were 38.3 mL/min/kg, 45 mL/min/kg and 31.7 mL/min/kg, respectively. In addition, in [4], the AUC(0-inf) came to 80 ng·h/mL. For the same compound, the Activity in data set [6] worked out at 51%. Further, in data set [8], the bioavailability came to 17%. Besides, the half-life in data set [9] was 36 min. In data set [11], the Emax at 24 h, 10 µM was determined as 2%. For the same compound, the inhibition in vivo at 600 mg/kg in data set [12] is 99%.

A word on the EC50: it is the concentration at which the effect is half-maximal. One may read the AUC(0-inf) as total exposure, with the tail of the curve extrapolated. In general, bioavailability refers to the share of a dose that reaches the circulation, judged against a reference dose that is usually intravenous. What is called half-life is how long it takes for the measured level to halve. As usually defined, the inhibition in vivo is the share of the control response that was lost under treatment.

For the origin of these results see ChEMBL document CHEMBL5370619, “Targeting the Tyrosine Kinase 2 (TYK2) Pseudokinase Domain: Discovery of the Selective TYK2 Inhibitor ABBV-712” (J Med Chem, 2023).
